Patent publication US20250188095A1, “DISUBSTITUTED OCTAHYDROPYRROLO[3,4-c]PYRROLYL METHYL KETONE DERIVATIVE AND USE THEREOF” (JIANGSU NHWA PHARMACEUTICAL CO., LTD, priority 2022, published 2025)

Tests used:
[1] = target: OX2 receptor (Homo sapiens (Human), UniProt O43614); test: In vitro activity test (Cisbio IP-one, CHO-K1-OX2 cells, antagonism of EC80 agonist); format: cell-based
Description: (§1) (1) Preparation of a reaction buffer (1×Stimulation buffer) required for the experiment: The 5×Stimulation buffer and ddH2O in the Cisbio IP-one kit were diluted in a ratio of 1:4 for later use.
(§2) (2) Compound preparation: The compound was diluted with DMSO to obtain a 5 mM stock solution, followed by a 3.16-fold dilution to obtain 10 gradients, and then the prepared compound was diluted with the Stimulation buffer to the corresponding concentrations (4×) for later use.
(§3) (3) Cell preparation: CHO-K1-OX1 and CHO-K1-OX2 cells on the culture dish were digested with trypsin, and the cells were washed off with culture medium and collected into 5 mL centrifuge tubes. The cells were centrifuged at 1000 rpm for 5 min, and the supernatant was discarded. 3 mL of PBS was added, and the mixture was gently pipetted to be mixed well. The cells were centrifuged again at 1000 rpm for 5 min, and the supernatant was discarded. The cells were resuspended in 1×Stimulation buffer and counted using a Countstar cell counter, and the cell density was adjusted to 1.71×10^6 cells/mL for later use.
(§4) (4) Cell addition: The cell suspensions were added to assay plates at 7 μL/well (i.e., about 12,000 cells/well).
(§5) (5) Compound addition: The compound diluted with the Stimulation buffer was added to the assay plates described above at 3.5 μL/well.
(§6) (6) Reaction and incubation: After gentle shaking, the assay plates were incubated at 37° C. for 30 min.
(§7) (7) EC80 agonist addition: 4×Orexin A (OX1 receptor) and 4×Orexin 2 receptor agonist (OX2 receptor) solutions of EC80 were added at 3.5 μL/well.
(§8) (8) Reaction and incubation: After gentle shaking, the assay plates were incubated at 37° C. for 45 min.
(§9) (9) Detection reagent addition: IP1-d2 and Anti-IP1 cryptate were separately diluted in a 1:20 ratio with the Lysis & detection buffer in the Cisbio IP-one detection kit, and the diluted IP1-d2 and Anti-IP1 cryptate described above were added to the assay plates, each at 3 μL/well. After shaking, the assay plates were left to stand at room temperature for 60 min.
(§10) (10) Experimental readings: The plate was read on Envision, readings from the 665 nm and 615 nm channels were taken, and the ratio of 665 nm/615 nm readings was calculated.
(§11) Based on the antagonistic effect values of the compound sample at different concentration test points, antagonistic curves of the compound sample against the orexin receptors were fitted using GraphPad Prism software, and the IC50 was calculated.

[2] = target: OX1 receptor (Homo sapiens (Human), UniProt O43613); test: In vitro activity test (Cisbio IP-one, CHO-K1-OX1 cells, antagonism of EC80 Orexin A); format: cell-based
Description: as §1, §2, §3, §4, §5, §6, §7, §8, §9, §10, §11

Sequence of OX1 receptor (O43613 whole entry): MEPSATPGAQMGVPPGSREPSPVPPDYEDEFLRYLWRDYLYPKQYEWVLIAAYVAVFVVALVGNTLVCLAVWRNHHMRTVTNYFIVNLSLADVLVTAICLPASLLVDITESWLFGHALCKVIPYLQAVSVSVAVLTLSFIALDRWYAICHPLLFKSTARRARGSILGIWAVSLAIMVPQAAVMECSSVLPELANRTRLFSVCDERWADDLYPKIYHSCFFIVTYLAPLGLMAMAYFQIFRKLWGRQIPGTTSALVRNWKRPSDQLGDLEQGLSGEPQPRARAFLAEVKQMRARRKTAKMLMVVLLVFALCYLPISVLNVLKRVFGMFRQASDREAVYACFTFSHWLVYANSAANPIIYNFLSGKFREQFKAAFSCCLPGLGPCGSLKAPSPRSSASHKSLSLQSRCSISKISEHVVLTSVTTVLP
Sequence of OX2 receptor (O43614 whole entry): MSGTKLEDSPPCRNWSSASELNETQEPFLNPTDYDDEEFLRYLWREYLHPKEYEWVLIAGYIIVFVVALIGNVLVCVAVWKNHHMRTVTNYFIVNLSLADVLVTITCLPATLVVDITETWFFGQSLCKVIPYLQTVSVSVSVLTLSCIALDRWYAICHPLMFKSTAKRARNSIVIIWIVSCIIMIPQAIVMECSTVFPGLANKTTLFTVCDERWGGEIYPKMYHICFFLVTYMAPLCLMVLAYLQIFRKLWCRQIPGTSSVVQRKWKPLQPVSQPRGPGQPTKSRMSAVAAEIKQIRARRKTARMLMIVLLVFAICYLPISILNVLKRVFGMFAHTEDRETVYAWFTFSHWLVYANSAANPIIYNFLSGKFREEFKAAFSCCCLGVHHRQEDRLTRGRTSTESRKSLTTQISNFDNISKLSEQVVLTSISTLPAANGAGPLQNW

| Structure (SMILES) | IC50 [1] [nM] | IC50 [2] [nM] |
| --- | --- | --- |
| Cc1cc(C)nc(N2C[C@H]3CN(C(=O)c4c(-c5ccccc5)cn5ccccc45)C[C@H]3C2)n1 [Example 1, ((3aR,6aS)-5-(4,6-dimethylpyrimidin-2-yl)hexahydropyrrolo[3,4-c]pyrrol-2(1H)-yl)(2-phenylindolizin-1-yl)methanone] | 100 to 300 | > 1000 |
| Cc1cc(C)nc(N2C[C@H]3CN(C(=O)c4c(-c5ccccn5)cn5ccccc45)C[C@H]3C2)n1 [Example 2, ((3aR,6aS)-5-(4,6-dimethylpyrimidin-2-yl)hexahydropyrrolo[3,4-c]pyrrol-2(1H)-yl)(2-(pyridin-2-yl)indolizin-1-yl)methanone] | 100 to 300 | > 1000 |
| Cc1cc(C)nc(N2C[C@H]3CN(C(=O)c4c(-c5ccc(C)s5)cn5ccccc45)C[C@H]3C2)n1 [Example 4, ((3aR,6aS)-5-(4,6-dimethylpyrimidin-2-yl)hexahydropyrrolo[3,4-c]pyrrol-2(1H)-yl)(2-(5-methylthiophen-2-yl)indolizin-1-yl)methanone] | < 100 | > 1000 |
| Cc1cc(C)nc(N2C[C@H]3CN(C(=O)c4c(-c5ccccn5)nn5ccccc45)C[C@H]3C2)n1 [Example 6, ((3aR,6aS)-5-(4,6-dimethylpyrimidin-2-yl)hexahydropyrrolo[3,4-c]pyrrol-2(1H)-yl)(2-(pyridin-2-yl)pyrazolo[1,5-a]pyridin-3-yl)methanone] | < 100 | > 1000 |
| Cc1nc(N2C[C@H]3CN(C(=O)c4c(-c5ncccc5F)cn5ccccc45)C[C@H]3C2)nc2ccoc12 [Example 7, (2-(3-fluoropyridin-2-yl)indolizin-1-yl)((3aR,6aS)-5-(4-methylfuro [3,2-d]pyrimidin-2-yl)hexahydropyrrolo[3,4-c]pyrrol-2(1H)-yl)methanone] | < 100 | > 1000 |
| Cc1nc(N2C[C@H]3CN(C(=O)c4c(-c5ncccc5F)cn5ccccc45)C[C@H]3C2)nn2cccc12 [Example 8, (2-(3-Fluoropyridin-2-yl)indolizin-1-yl)((3aR,6aS)-5-(4-methylpyrrolo [2,1-f][1,2,4]triazin-2-yl)hexahydropyrrolo[3,4-c]pyrrol-2(1H)-yl)methanone] | < 100 | > 1000 |
| Cc1cc(C)nc(N2C[C@H]3CN(C(=O)c4c(-c5nccs5)cn5ccccc45)C[C@H]3C2)n1 [Example 9, ((3aR,6aS)-5-(4,6-dimethylpyrimidin-2-yl)hexahydropyrrolo[3,4-c]pyrrol-2(1H)-yl)(2-(thiazol-2-yl)indolizin-1-yl)methanone] | 100 to 300 | > 1000 |
| O=C(c1c(-c2ncccc2F)cn2ccccc12)N1C[C@@H]2CN(c3cnc4ccccc4n3)C[C@@H]2C1 [Example 10, (2-(3-Fluoropyridin-2-yl)indolizin-1-yl)((3aR,6aS)-5-(quinoxalin-2-yl)hexahydropyrrolo[3,4-c]pyrrol-2(1H)-yl)methanone] | 100 to 300 | > 1000 |
| Cc1cc(C)nc(N2C[C@H]3CN(C(=O)c4c(-c5ncccc5C(F)(F)F)cn5ccccc45)C[C@H]3C2)n1 [Example 11, ((3aR,6aS)-5-(4,6-dimethylpyrimidin-2-yl)hexahydropyrrolo[3,4-c]pyrrol-2(1H)-yl)(2-(3-(trifluoromethyl)pyridin-2-yl)indolizin-1-yl)methanone] | 100 to 300 | > 1000 |
| Cc1cc(C)nc(N2C[C@H]3CN(C(=O)c4c(-c5ccccc5)nn5cccnc45)C[C@H]3C2)n1 [Example 12, ((3aR,6aS)-5-(4,6-dimethylpyrimidin-2-yl)hexahydropyrrolo[3,4-c]pyrrol-2(1H)-yl)(2-phenylpyrazolo[1,5-a]pyrimidin-3-yl)methanone] | 100 to 300 | > 1000 |
| Cc1cc(C)nc(N2C[C@H]3CN(C(=O)c4c(-c5ccccc5)nn5ccncc45)C[C@H]3C2)n1 [Example 13, ((3aR,6aS)-5-(4,6-dimethylpyrimidin-2-yl)hexahydropyrrolo[3,4-c]pyrrol-2(1H)-yl)(2-phenylpyrazolo[1,5-a]pyrazin-3-yl)methanone] | 100 to 300 | > 1000 |
| Cc1cc(C)nc(N2C[C@H]3CN(C(=O)c4c(-c5ccccc5)nn5ncccc45)C[C@H]3C2)n1 [Example 14, ((3aR,6aS)-5-(4,6-dimethylpyrimidin-2-yl)hexahydropyrrolo[3,4-c]pyrrol-2(1H)-yl)(2-phenylpyrazolo[1,5-b]pyridazin-3-yl)methanone] | 100 to 300 | > 1000 |
| Cc1cc(C)nc(N2C[C@H]3CN(C(=O)c4c(-c5ccccc5F)cn5ccccc45)C[C@H]3C2)n1 [Example 15, ((3aR,6aS)-5-(4,6-dimethylpyrimidin-2-yl)hexahydropyrrolo[3,4-c]pyrrol-2(1H)-yl)(2-(2-fluorophenyl)indolizin-1-yl)methanone] | < 100 | > 1000 |
| Cc1cc(C)nc(N2C[C@H]3CN(C(=O)c4c(-c5ccsc5)cn5ccccc45)C[C@H]3C2)n1 [Example 17, ((3aR,6aS)-5-(4,6-dimethylpyrimidin-2-yl)hexahydropyrrolo[3,4-c]pyrrol-2(1H)-yl)(2-(thiophen-3-yl)indolizin-1-yl)methanone] | < 100 |  |
| Cc1cc(C)nc(N2C[C@H]3CN(C(=O)c4c(-c5ncccc5F)cn5cc(F)ccc45)C[C@H]3C2)n1 [Example 18, ((3aR,6aS)-5-(4,6-dimethylpyrimidin-2-yl)hexahydropyrrolo[3,4-c]pyrrol-2(1H)-yl)(6-fluoro-2-(3-fluoropyridin-2-yl)indolizin-1-yl)methanone] | < 100 | > 1000 |
| Cc1cc(C)nc(N2C[C@H]3CN(C(=O)c4c(-c5ccccn5)cn5cc(F)ccc45)C[C@H]3C2)n1 [Example 19, ((3aR,6aS)-5-(4,6-dimethylpyrimidin-2-yl)hexahydropyrrolo[3,4-c]pyrrol-2(1H)-yl)(6-fluoro-2-(pyridin-2-yl)indolizin-1-yl)methanone] | < 100 | > 1000 |
| Cc1cc(C)nc(N2C[C@H]3CN(C(=O)c4c(-c5ncco5)cn5ccccc45)C[C@H]3C2)n1 [Example 20, ((3aR,6aS)-5-(4,6-dimethylpyrimidin-2-yl)hexahydropyrrolo[3,4-c]pyrrol-2(1H)-yl)(2-(oxazol-2-yl)indolizin-1-yl)methanone] | < 100 | > 1000 |
| Cc1cc(C)nc(N2C[C@H]3CN(C(=O)c4c(-c5ncccn5)cn5ccccc45)C[C@H]3C2)n1 [Example 21, ((3aR,6aS)-5-(4,6-dimethylpyrimidin-2-yl)hexahydropyrrolo[3,4-c]pyrrol-2(1H)-yl)(2-(pyrimidin-2-yl)indolizin-1-yl)methanone] | < 100 | > 1000 |
| Cc1nc(N2C[C@H]3CN(C(=O)c4c(-c5ccccn5)cn5ccccc45)C[C@H]3C2)nc(C)c1F [Example 24, ((3aR,6aS)-5-(5-fluoro-4,6-dimethylpyrimidin-2-yl)hexahydropyrrolo [3,4-c]pyrrol-2(1H)-yl)(2-(pyridin-2-yl)indolizin-1-yl)methanone] | < 100 | > 1000 |
| Cc1nc(N2C[C@H]3CN(C(=O)c4c(-c5ncccc5F)cn5ccccc45)C[C@H]3C2)nc2c1CCC2 [Example 26, (2-(3-fluoropyridin-2-yl)indolizin-1-yl)((3aR,6aS)-5-(4-methyl-6,7-dihydro-5H-cyclopenta[d]pyrimidin-2-yl)hexahydropyrrolo[3,4-c]pyrrol-2(1H)-yl)methanone] | < 100 | > 1000 |
| Cc1cc(C)nc(N2C[C@H]3CN(C(=O)c4c(-c5cccs5)cn5ccccc45)C[C@H]3C2)n1 [Example 28] | < 100 | > 1000 |
